Measurements: article PMC4769596 (Biochemical pharmacology, 2014)
Read-outs that look alike come from different tables or passages of the source.

Key:
[1] = target: μOR (spinal cord membranes from δOR−/− mice) (Mus musculus, UniProt P42866); test: [35S]GTPγS binding, spinal cord membranes from δOR−/− mice; format: biochemical; details: spinal cord membranes (10 μg), basal = 100%
[2] = Chronic treatment, body weight; details: 10 mg/kg/day p.o. for 5 days
[3] = target: μOR homomers (μ^βgalOR cells) (Homo sapiens, UniProt P35372); format: cell-based
[4] = system: novel-environment stressed mice; details: doses of 5–25 mg/kg; cited from earlier work
[5] = target: μOR-δOR heteromers (μ^βgalOR-δOR cells) (Homo sapiens, UniProt P35372+P41143)
[6] = target: μOR (membranes from the ileum of WT mice) (Mus musculus, UniProt P42866); test: [35S]GTPγS binding, ileal membranes from WT mice; format: biochemical; details: 10 μM (Fig. 1G)
[7] = target: μOR (spinal cord membranes from WT mice) (Mus musculus, UniProt P42866); test: [35S]GTPγS binding, spinal cord membranes from WT mice; format: biochemical; details: spinal cord membranes (10 μg); for Emax (% basal), [35S]GTPγS binding: basal = 100%
[8] = system: spinal cord membranes from μOR−/− mice; test: [35S]GTPγS binding, spinal cord membranes from μOR−/− mice; format: biochemical
[9] = system: castor oil-induced diarrhea in δOR−/− mice; test: Castor oil-induced diarrhea in δOR−/− mice; format: in vivo; details: for castor oil induced fecal output (fecal weight): 4 h; for castor oil-induced decrease in body weight: 5 or 10 mg/kg p.o., 4 h after castor oil
[10] = system: castor oil-induced diarrhea in WT mice; format: in vivo; details: for effect on body weight change in presence of naltrexone: WT and δOR−/− mice; for reduction in castor oil-induced diarrhea after naltrexone pre-treatment: 10 mg/kg p.o., naltrexone 10 mg/kg i.p. 20 min before; for castor oil-induced diarrhea (diarrhea score): 5 or 10 mg/kg p.o. 15 min before castor oil; for castor oil-induced diarrhea (diarrhea score) / castor oil induced fecal output (fecal weight): 4 h; for castor oil induced fecal output (fecal weight) / castor oil-induced decrease in body weight: 5 or 10 mg/kg p.o.
[11] = system: antinociception; details: cited from earlier work

μOR (spinal cord membranes from WT mice), sequence (P42866 whole entry): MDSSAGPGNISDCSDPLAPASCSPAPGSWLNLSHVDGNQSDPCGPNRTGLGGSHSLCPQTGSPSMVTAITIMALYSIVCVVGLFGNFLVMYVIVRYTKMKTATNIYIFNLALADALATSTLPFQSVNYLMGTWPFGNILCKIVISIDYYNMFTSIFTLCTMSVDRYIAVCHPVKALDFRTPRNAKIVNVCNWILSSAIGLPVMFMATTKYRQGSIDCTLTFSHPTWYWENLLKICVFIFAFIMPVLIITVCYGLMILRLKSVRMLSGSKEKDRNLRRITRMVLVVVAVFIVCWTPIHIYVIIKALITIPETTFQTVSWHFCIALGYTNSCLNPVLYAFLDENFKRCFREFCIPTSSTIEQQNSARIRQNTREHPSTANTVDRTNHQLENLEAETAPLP
μOR (spinal cord membranes from δOR−/− mice), sequence (P42866 whole entry): as above
μOR-δOR heteromers (μ^βgalOR-δOR cells), sequence (P35372 whole entry): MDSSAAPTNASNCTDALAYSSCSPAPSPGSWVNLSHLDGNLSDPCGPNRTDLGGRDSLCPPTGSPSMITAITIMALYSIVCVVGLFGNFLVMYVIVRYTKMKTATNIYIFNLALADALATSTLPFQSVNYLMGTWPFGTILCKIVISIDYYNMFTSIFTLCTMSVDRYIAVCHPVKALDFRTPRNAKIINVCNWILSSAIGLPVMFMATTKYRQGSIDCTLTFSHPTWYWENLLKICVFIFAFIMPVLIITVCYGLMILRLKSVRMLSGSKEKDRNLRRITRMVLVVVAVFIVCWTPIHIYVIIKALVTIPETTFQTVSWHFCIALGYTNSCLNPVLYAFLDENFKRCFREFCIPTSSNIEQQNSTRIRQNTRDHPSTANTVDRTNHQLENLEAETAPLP
μOR-δOR heteromers (μ^βgalOR-δOR cells), sequence (P41143 whole entry): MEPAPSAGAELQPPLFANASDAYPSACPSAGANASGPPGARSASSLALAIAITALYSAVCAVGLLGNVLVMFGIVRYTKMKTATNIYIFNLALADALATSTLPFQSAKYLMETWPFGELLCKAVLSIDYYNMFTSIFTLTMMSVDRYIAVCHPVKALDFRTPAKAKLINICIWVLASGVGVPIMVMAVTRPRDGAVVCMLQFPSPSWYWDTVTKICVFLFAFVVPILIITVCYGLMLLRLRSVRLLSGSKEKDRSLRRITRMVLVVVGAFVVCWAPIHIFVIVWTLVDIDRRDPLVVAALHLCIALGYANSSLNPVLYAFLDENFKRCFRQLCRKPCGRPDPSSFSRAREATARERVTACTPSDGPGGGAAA
μOR (membranes from the ileum of WT mice), sequence (P42866 whole entry): as the sequence (P42866 whole entry) above
μOR homomers (μ^βgalOR cells), sequence (P35372 whole entry): as the sequence (P35372 whole entry) above

COc1ccc(CN(C(=O)[C@@H](N)Cc2c(C)cc(C(N)=O)cc2C)[C@@H](C)c2ncc(-c3ccccc3)[nH]2)cc1C(=O)O [eluxadoline]
Emax (% basal), [35S]GTPγS binding [1]: ~ 143 % basal
changes in body weight [2]: did not lead to significant changes
block of β-arrestin recruitment by μOR-selective antibodies [3]: ~ 40%
constipation [4]: did not cause constipation
block of β-arrestin recruitment by μOR-selective antibodies [5]: ~ 17%
block of β-arrestin recruitment by μOR-δOR heteromer-selective antibodies [5]: 27%
increase in [35S]GTPγS binding compared to DAMGO or loperamide [6]: higher increase
EC50 ([7]; EC50, [35S]GTPγS binding): ~7 nM
Emax (% basal), [35S]GTPγS binding [7]: ~ 120 % basal
increase of [35S]GTPγS binding [8]: did not increase
effect on castor oil-induced body weight change compared to WT mice ([9]; 5 mg/kg): less effective
castor oil-induced diarrhea (diarrhea score) ([9]; 5 mg/kg p.o.): did not significantly reduce
castor oil induced fecal output (fecal weight) ([9]; 5 mg/kg p.o.): significantly decreased
castor oil-induced diarrhea (diarrhea score) ([9]; 10 mg/kg p.o.): partially eliminate
castor oil-induced decrease in body weight [9]: blocked
effect on body weight change in presence of naltrexone ([10]; naltrexone 10 mg/kg i.p.): partly blocked
fecal output versus vehicle control (constipation) ([10]; WT mice, 5 mg/kg, 4 h after castor oil): slightly reduced fecal output to below the vehicle control
reduction in castor oil-induced diarrhea after naltrexone pre-treatment ([10]; WT mice): not observed
castor oil-induced diarrhea (diarrhea score) ([10]; WT mice): reduced
castor oil induced fecal output (fecal weight) ([10]; WT mice): significantly reduces
castor oil-induced decrease in body weight ([10]; WT mice, 4 h after castor oil): blocked
effect on fecal output with coadministration of naltrexone ([10]; WT mice, naltrexone 10 mg/kg i.p.): blocked

CN(C)C(=O)C(CCN1CCC(O)(c2ccc(Cl)cc2)CC1)(c1ccccc1)c1ccccc1 [loperamide]
changes in body weight [2]: did not lead to significant changes
increase of [35S]GTPγS binding [8]: did not increase
castor oil-induced diarrhea (diarrhea score) ([9]; 5 mg/kg p.o.): did not significantly reduce
castor oil induced fecal output (fecal weight) ([9]; 5 mg/kg p.o.): significantly decreased
castor oil-induced diarrhea (diarrhea score) ([9]; 10 mg/kg p.o.): completely eliminate
castor oil-induced decrease in body weight [9]: blocked
effect on body weight change in presence of naltrexone ([10]; naltrexone 10 mg/kg i.p.): partly blocked
reduction in castor oil-induced diarrhea after naltrexone pre-treatment ([10]; WT mice): not observed
castor oil-induced diarrhea (diarrhea score) ([10]; WT mice): reduced
castor oil induced fecal output (fecal weight) ([10]; WT mice): significantly reduces
castor oil-induced decrease in body weight ([10]; WT mice, 4 h after castor oil): blocked
effect on fecal output with coadministration of naltrexone ([10]; mouse, in vivo): blocked

C[C@@H](NC(=O)[C@@H](N)Cc1ccc(O)cc1)C(=O)NCC(=O)N(C)[C@@H](Cc1ccccc1)C(=O)NCCO [DAMGO, [D-Ala^2, N-MePhe^4, Gly-ol]-enkephalin]
Emax (% basal), [35S]GTPγS binding [1]: ~ 147 % basal
Emax (% basal), [35S]GTPγS binding [7]: ~ 143 % basal
increase of [35S]GTPγS binding [8]: did not increase

CN1CC[C@]23c4c5ccc(O)c4O[C@H]2[C@H](NC(=O)COCC(=O)NCCCCCCCNC(=O)COCC(=O)Nc2cccc4c6c([nH]c24)[C@@H]2Oc4c(O)ccc7c4[C@@]24CCN(CC2CC2)[C@@H](C7)[C@]4(O)C6)CC[C@@]3(O)[C@H]1C5 [MDAN21]
antinociceptive potency compared to morphine [11]: 100 times
